US9868695B2 (priority 2014, dated 2018)

Experiments:
P-gp = P-gp induction assay, rhodamine123 (Rh123) cell exclusion method in LS-180 cells
Method: All synthesized compounds were screened for their ability to induce P-gp by using rhodamine123 (Rh123) cell exclusion method. In this method, the P-gp function was evaluated in terms of rhodamine 123 (Rh123) accumulation and efflux. Briefly, the protocol used is as follows: Colorectal LS-180 cells (ECACC type, purchased from Sigma, Cat. no. 87021202, cell passage no. 52) were seeded at a density of 2×10^4 per well of 96 well plate and were allowed to grow for next 24 h. Cells were further incubated with the test compounds, and were diluted to a final concentration of 100 nM and rifampicin (standard) to a final concentration of 10 μM in complete media for 48 h. The final concentration of DMSO was kept at 0.1%. Drugs were removed and cells were incubated with HANKS buffer for 40 minutes before further incubation with HANKS buffer (containing 10 μM of Rh123 as a P-gp substrate) for 90 minutes. At the end of Rh123 treatment cells were washed four times with cold PBS followed by cell lysis for 1 h by using 200 μl of lysis buffer (0.1% Triton X-100 and 0.2 N NaOH). A total of 100 μl of lysate was used for reading fluorescence of Rh123 at 485 nm/529 nm. Samples were normalized by dividing fluorescence of each sample with total protein present in the lysate. For EC50 determination, different concentrations of compound were used to treat LS180 cells for 48 h. EC50 was determined by plotting fluorescence of Rh123 against concentration of compound.

Colo-205 = experiment: Antiproliferative activity, MTT assay, Colo-205; type: cell-based; conditions: Homo sapiens, 48 h
Method: Human colon cancer cell lines HCT-116 (NCI, passage no. 5) and Colo-205 116 (NCI, passage no. 3) were procured from National Cancer Institute, USA. HCT-116 and Colo-205 cells were grown in McCoy's 5A and RPMI growth medium respectively containing 10% FCS, 100 U penicillin and […] per mL medium. Cells were grown in CO2 incubator (Thermocon Electron Corporation, Houston, Tex.) at 37° C. with 95% humidity and 5% CO2 gas environment. Cells treated with tested materials were dissolved in DMSO while the untreated control cultures received only the vehicle (DMSO<0.2%). Cells were seeded in 96 well plates and exposed to tested compounds at various concentrations for 48 h time interval. MTT dye (2.5 mg/ml in PBS) was added 4 hrs priors to experiment termination. The plates were then centrifuged at 1500 rpm for 15 min and the supernatant was discarded, and MTT formazan crystals were dissolved in 150 μl of DMSO. The OD measured at 570 nm with reference wavelength of 620 nm.
The percentages of cell viability and growth inhibition were calculated using formulas: […]

## COc1cc2c(c(OC)c1OC)-c1ccc(Nc3ccc(Cl)c(C(F)(F)F)c3)c(=O)cc1[C@@H](NC(C)=O)CC2 [Compound 1g, N-[(7S)-1,2,3-Trimethoxy-9-oxo-10-[3-(trifluoromethyl)-4-chloro-phenylamino]-5,6,7,9-tetrahydrobenzo[a]heptalen-7-yl]acetamide]
P-gp; LS180 cells, Rh123 accumulation, in words
  P-gp induction activity: complete loss of P-gp induction activity
P-gp; compound 100 nM, 48 h, control = 100%, decrease indicates P-gp induction
  % intracellular accumulation of Rh123 in LS180 cells: 90%
P-gp; read-out: EC50, induction of P-gp, P-gp overexpressing LS-180 cells, 48 h
  EC50: 69 nM
Colo-205
  IC50: 30 nM
